Measured values from paper PMC12057341, “In vitro pharmacokinetic/pharmacodynamic modeling of the effect of mucin on polymyxin B activity against Acinetobacter baumannii” (Antimicrobial Agents and Chemotherapy, 2025).
“Also recorded” adds a separate entry of the source. Where a SMILES comes first, the peptide text is derived from it. Bridges are numbered along the chain shown (N, C = ends). [ ]: non-standard residue; d: D form. The star is where a group is joined. X1 = CC[C@H](C)CCCCC(=O)*; Dab = NCC[C@H](N)C(=O)O

What was measured:
[1] = tested on: Acinetobacter baumannii AB122-D12; assay: PMB MIC in CAMHB with or without 1% mucin, AB122-D12; assay type: cell-based
Description: (§1) Two clinical MDR strains of A. baumannii, isolated from a patient before (AB121-D0) and 12 days after treatment with colistin (AB122-D12), were used during this study ([32]). AB122-D12 carries a 10 amino acid insertion into the pmrB gene, known to confer PMB resistance.
(§2) PMB MICs of both A. baumannii strains were determined in commercial CAMHB (BioMérieux, Marcy-l’Etoile, France) according to the European Committee on Antimicrobial Susceptibility Testing and Clinical and Laboratory Standards Institute (CLSI) recommendations ([33], [34]). PMB MICs of the two A. baumannii isolates were also determined at least in duplicate in CAMHB supplemented with 1% of mucin.

[2] = tested on: Acinetobacter baumannii AB121-D0; assay: PMB MIC in CAMHB with or without 1% mucin, AB121-D0; assay type: cell-based
Description: as §1, §2

[3] = assumed for TK modeling, as previously shown; cited from earlier work
Source text: (§3) Bacterial counts obtained from TK experiments without mucin were first modeled using NONMEM 7.4 (ICON plc, Dublin, Ireland) with the Laplacian algorithm and the M3 method for handling observations below the limit of quantification ([39]). PMB was assumed to be stable over the course of the experiment as previously shown ([40]). A previously described model with hetero-resistance ([41]), that is, two bacterial subpopulations, one susceptible to PMB (S) and one resistant (R), was used to describe the time course of bacterial counts for the two A. baumannii strains (Fig. 1). Different functions w ...

[4] = tested on: Acinetobacter baumannii AB122-D12; assay: Time-kill experiments and PK/PD modeling, AB122-D12; assay type: cell-based
Description: Bacteria were cultured overnight under shaking (150–170 rpm) in CAMHB at 35°C. The bacterial suspension was then diluted to 1/50 and incubated at 35°C under shaking until an optical density of 0.3 (corresponding to 1.10^8 CFU/ml of bacteria in the exponential growth phase) was achieved. This bacterial suspension was then diluted in order to obtain a starting inoculum at 1.10^6 CFU/mL. TK experiments were performed in CAMHB in the absence and presence of 1% mucin. PMB concentrations varied from 0.5 mg/L to 128 mg/L for AB121-D0 and 8 mg/L to 512 mg/L for AB122-D12. Drug-free CAMHB was used as bacterial growth control for each strain. Tubes were incubated at 35°C under shaking (150–170 rpm), and aliquots were sampled over time at T0h, T1h, T3h, T6h, T10h, T24h, and T30h. Samples were serially diluted in NaCl 0.9% and plated onto Mueller-Hinton agar supplemented with 1% activated charcoal (to prevent PMB carry-over effect). Bacteria were counted after overnight incubation at 35°C. The limit of quantification was fixed based on CLSI guidelines ([38]) and was equal to 400 CFU/ml (i.e. 2.6 log10 CFU/mL). Experiments were conducted in triplicate for both strains.
as §3, with “were tested to characterize the PMB killing effect (see supplemental material for model building).” for “w ...”
Then, TK data in the presence of mucin were included in the data set and PMB total concentrations were corrected for mucin binding using equation 1, with unbound PMB concentrations driving the antibacterial effect. […]

[5] = CAMHB + 1% mucin, unbound MIC = MIC x fu
[6] = MIC with 1% mucin corrected by fu

CC[C@H](C)CCCCC(=O)N[C@@H](CCN)C(=O)N[C@H](C(=O)N[C@@H](CCN)C(=O)N[C@H]1CCNC(=O)[C@H]([C@@H](C)O)NC(=O)[C@H](CCN)NC(=O)[C@H](CCN)NC(=O)[C@H](CC(C)C)NC(=O)[C@@H](Cc2ccccc2)NC(=O)[C@H](CCN)NC1=O)[C@@H](C)O [PMB, polymyxin B] (X1-[Dab]T[Dab][Dab][Dab][dF]L[Dab][Dab]T; lactam 4-C)
MICu (corrected by fu) [1, 5]: 628 mg/L
MICu ratio in the presence and absence of mucin [1, 6]: 20
Fold increase of MIC in the presence of 1% mucin compared to CAMHB ([1]; total concentrations): 32 fold
MICu (corrected by fu) [2, 5]: 13 mg/L
MICu ratio in the presence and absence of mucin [2, 6]: 13
Fold increase of MIC in the presence of 1% mucin compared to CAMHB ([2]; total concentrations): 64 fold
Stability over the course of the experiment [3]: stable
Fold increase of EC50 in the presence of mucin ([4]; 1% mucin vs no mucin, both S and R subpopulations): increased approx. fivefold; also recorded: fivefold increase
Unbound PMB concentration able to prevent bacterial regrowth in TK ([4]; CAMHB + 1% mucin, no concentration in the range tested prevented regrowth): > 304 mg/L
PMB concentrations up to which regrowth was observed in TK after initial CFU decay ([4]; CAMHB without mucin, 30 h): ≤ 128 mg/L
